For assay [1], the target named is T1, Amine oxidase [flavin-containing] A (Homo sapiens, UniProt P21397).
T1 sequence (P21397 whole entry): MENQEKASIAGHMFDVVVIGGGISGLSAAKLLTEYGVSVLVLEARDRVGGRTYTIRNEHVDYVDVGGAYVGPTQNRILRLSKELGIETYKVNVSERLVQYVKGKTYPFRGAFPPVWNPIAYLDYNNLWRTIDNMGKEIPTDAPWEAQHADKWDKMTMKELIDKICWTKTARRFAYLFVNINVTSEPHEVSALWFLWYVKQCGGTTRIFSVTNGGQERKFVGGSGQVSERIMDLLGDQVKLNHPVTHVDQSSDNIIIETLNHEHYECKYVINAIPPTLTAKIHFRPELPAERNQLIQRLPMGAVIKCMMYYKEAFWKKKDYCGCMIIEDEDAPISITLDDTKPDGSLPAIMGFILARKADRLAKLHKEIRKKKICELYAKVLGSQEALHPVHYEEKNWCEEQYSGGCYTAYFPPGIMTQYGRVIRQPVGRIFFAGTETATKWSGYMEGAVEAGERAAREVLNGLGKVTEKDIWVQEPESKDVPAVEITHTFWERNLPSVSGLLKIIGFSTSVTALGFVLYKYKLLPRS
In words: Inhibition of human recombinant MAOA expressed in Pichia pastoris.

The target in assay [2] is T2, Amine oxidase [flavin-containing] B (Homo sapiens, UniProt P27338).
T2 sequence (P27338 whole entry): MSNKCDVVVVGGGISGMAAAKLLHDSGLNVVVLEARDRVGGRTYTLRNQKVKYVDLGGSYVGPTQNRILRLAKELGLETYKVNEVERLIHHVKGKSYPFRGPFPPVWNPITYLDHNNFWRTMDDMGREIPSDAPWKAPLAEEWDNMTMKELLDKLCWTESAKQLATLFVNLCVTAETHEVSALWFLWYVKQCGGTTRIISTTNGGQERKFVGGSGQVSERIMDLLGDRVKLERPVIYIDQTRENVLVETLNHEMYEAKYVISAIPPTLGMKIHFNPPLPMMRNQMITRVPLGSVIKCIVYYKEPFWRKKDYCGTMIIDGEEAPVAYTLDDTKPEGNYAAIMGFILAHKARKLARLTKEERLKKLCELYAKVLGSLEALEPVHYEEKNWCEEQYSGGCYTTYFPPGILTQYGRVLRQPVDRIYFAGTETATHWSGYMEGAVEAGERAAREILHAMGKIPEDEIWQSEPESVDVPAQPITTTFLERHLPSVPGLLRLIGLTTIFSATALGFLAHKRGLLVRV
In words: Inhibition of human recombinant MAOB expressed in Pichia pastoris.

A word on the Ki: it is the equilibrium dissociation constant of an inhibitor or competing ligand from its target. As to `CNCc1cc(=O)oc2cc(OCc3cccc(Cl)c3)ccc12`, the Ki amounted to 15.7 µM in assay [1] and 0.1 µM in assay [2].
As for `O=Cc1cc(=O)oc2cc(OCc3cccc(Cl)c3)ccc12`, the Ki was 11 µM in assay [1] and 0.4 µM in assay [2].
